# What was measured:
# PC-12 cells [1] = test: ATP assay of cell viability, PC-12 cells under hypoxia/reoxygenation; format: cell-based; conditions: 5-100 μM carbamathione; hypoxia and reoxygenation; without treatment about 47% of control; FIG. 9
# Procedure: (§1) In another set of experiments, the effect of carbamathione on cell viability and expression of various biomarkers in PCT-12 cells exposed to hypoxia/reoxygenation was evaluated. Referring to FIG. 9, PC-12 cells were exposed to hypoxia and reoxygenation in the presence or in the absence of 5-100 μM carbamathione. […] Referring to FIGS. 13 and 14, GRP 78, CHOP, Caspase-12, and cleaved Caspase-12 expression induced by hypoxia-reoxygenation were each inhibited by carbamathione.
# PC-12 cells [2] = test: Western blot of stress/apoptosis markers in PC-12 cells under hypoxia/reoxygenation; format: cell-based
# Procedure: For the Western blot assays, animals were deeply anesthetized by isoflurane (Phoenix) and decapitated, and then brains were rapidly removed. After sacrifice, the while the brain was on ice, the left hemisphere and the right hemisphere (identical parts) were quickly dissected on dry ice and homogenized in Lysis buffer consisting of 50 mM Tris-HCl, 150 mM NaCl, 2 mM EDTA, pH 8.0, 1% Triton-X-100, 1:100 dilution of mammalian protease inhibitors (Sigma-Aldrich, MO, USA) and protease inhibitor for immunoblotting. Protein concentrations of each sample solution were determined with a Bradford protein assay, and samples were stored at −80° C. until use. Protein samples were separated by 12% sodium dodecyl sulfate-polyacrylamide gel electrophoresis and transferred onto nitrocellulose membranes. Western blot was performed using the following primary antibodies overnight: abcam: GRP 78, HSP70, HSP 27, activating transcription factor 4 (ATF4), and X-box-binding protein 1 (XBP-1) (1:500); Cell Signaling: GAPDH (1:3,000), Bax, BCL2 (1:1,000), AKT, phosphorylated AKT (p-AKT); Santa Cruz: CHOP/GADD153); Imgenex: ATF6 (1:1,500). The membranes were washed three times with Tris-buffered saline containing 0.1% Tween-20 (TBS-T) and incubated with secondary antibodies for 1 hour at room temperature. Secondary antibodies used were goat IRDye 800-conjugated anti-rabbit (1:15,000) and IRDye 680 conjugated anti-mouse (1:15,000) antibodies (LI-COR Biosciences, Lincoln, Nebr., USA). Fluorescent signals were detected with a LI-COR Odyssey Fc system and the images were quantified with the provided either Image Studio 2.0 software or image J software.
# as §1
# [3] = test system: bilateral carotid artery occlusion (BCAO) mice; test: Brain infarct by TTC staining in BCAO stroke model; format: in vivo; conditions: 14 mg/kg subcutaneously 30 min after occlusion
# Procedure: (§2) For the bilateral carotid artery occlusion assay (BCAO) experiments, male Swiss Webster mice (20 weeks of age) were obtained from Charles River laboratory. The mice were allowed access to water only and kept fasting overnight before surgery. Mice were anesthetized with ketamine (100 mg/kg, i.p.) plus xylazine (10 mg/kg, i.p.). For induction of anesthesia, mice were exposed to a gaseous mixture consisting of 30% oxygen, 70% N2O and 0.5% isoflurane using a vaporizer. For maintenance of anesthesia, isoflurane concentration was used to 0.5%. Mice were breathing spontaneously via breathing mask throughout the surgical procedure. A rectal temperature probe was inserted. During surgery, mice were resting on a thermostat-controlled heating pad, ensuring a constant core temperature of 37.0±0.5° C.
# (§3) While anesthesia was maintained as described above, each mouse was placed on its back, and its tail and paws were fixed to the heating pad using adhesive tape. A sagittal ventral midline incision (˜1 cm length) was performed. […] The body temperature was monitored and maintained at 37° C.±0.5° C. during the immediate postoperative period until the animals recovered fully from anesthesia. […]
# Mice were euthanized 4 days after surgery. […] To assess lesion volume, TTC-stained slices (2, 4, 6, 8, and 10 mm from the frontal pole) were scanned using a scanner and analyzed by Image-J analysis software. […]
# [4] = test system: bilateral carotid artery occlusion (BCAO) mice; test: Corner test in BCAO stroke model; format: in vivo; conditions: 14 mg/kg s.c. daily; up to 4 days after BCAO; untreated BCAO ~90% to one side; FIG. 21
# Procedure: as §2, with “During surgery, mice were resting on a thermostat-controlled heating pad, ensuring a constant core temperature of 37.0±0.5° C.” left out
# While anesthesia was maintained as described above, each mouse was placed on its back, and its tail and paws were fixed to the heating pad using adhesive tape. […] The body temperature was monitored and maintained at 37° C.±0.5° C. during the immediate postoperative period until the animals recovered fully from anesthesia.
# The Corner test, which determines an animal's asymmetric direction of turning when encountering a corner, is used as an indicator of brain injury. […] Each mouse took part in ten trials, after which we calculated the percentage of turns to each side, recording only those turns involving full rearing along one of the boards. […]
# [5] = test system: bilateral carotid artery occlusion (BCAO) mice; test: Locomotor activity on force-plate actometer in BCAO stroke model; format: in vivo; conditions: 14 mg/kg s.c. daily; 4 days after BCAO; FIG. 22
# Procedure: as §2
# as §3, with “performed. Both common carotid arteries (CCAs) were isolated, freed of nerve fibers, and occluded using non-traumatic aneurysm clips. Complete interruption of blood flow was confirmed under an operating microscope.” for “performed.”
# [6] = test system: bilateral carotid artery occlusion (BCAO) mice; test: Western blot of brain tissue in BCAO stroke model; format: in vivo
# Procedure: as §2
# While anesthesia was maintained as described above, each mouse was placed on its back, and its tail and paws were fixed to the heating pad using adhesive tape. A sagittal ventral midline incision (˜1 cm length) was performed. Both common carotid arteries (CCAs) were isolated, freed of nerve fibers, and occluded using non-traumatic aneurysm clips. Complete interruption of blood flow was confirmed under an operating microscope. After 30 min of ischemia, the aneurysm clips were removed from both CCAs. Restoration of blood flow (reoxygenation) was observed directly under the microscope. Sham-operated controls were subjected to the same surgical procedures except that CCAs were not occluded. The body temperature was monitored and maintained at 37° C.±0.5° C. during the immediate postoperative period until the animals recovered fully from anesthesia.
# Animals were randomly assigned for sham, control, and experimental groups. Thereafter, in experimental group (carbamathione treated group, N=9), carbamathione (14 mg/kg in 0.3 mL saline 0.9%) was injected subcutaneously 30 min after occlusion and continued daily until the animal was sacrificed. In control groups (vehicle-treated group, N=9), vehicle (0.3 ml saline 0.9%) was injected subcutaneously 30 min after occlusion. Sham-operated group (N=6) received the same surgical procedure without occlusion of common carotid artery. After surgery, animals were allowed to recover from the anesthesia, and given food and water ad libitum. The animals were daily examined for body temperature and weight, and those who had body temperature more than 39° C. after 24 hour were excluded from the experiment.
# For the Western blot assays, animals were deeply anesthetized by isoflurane (Phoenix) and decapitated, and then brains were rapidly removed. […] Protein concentrations of each sample solution were determined with a Bradford protein assay, and samples were stored at −80° C. until use. […]
# PC-12 cells [7] = conditions: 10 mM glutamate for 24 hours
# Procedure: PC-12 cells (purchased from ATCC, Manassas, Va., USA) were cultured in a petri dish for one week prior to use. PC-12 cells were maintained at 37° C./5% CO2 in an incubator, and fed every other day using F12-K medium supplemented with 5% (v/v) fetal bovine serum (FBS), 10% (v/v) heat-inactivated horse serum (HS) and 1% (v/v) penicillin-streptomycin solution. Experiments were performed on undifferentiated cells plated in 96-well plates at a density of approximately 5×10^4 cells/ml for the ATP assay. On first day of use, cells were harvested by first adding 2 mL trypsin and incubated for 15 minutes. 2 mL fresh medium was then used as a wash and cells were spun, and re-suspended. Cell density was determined by cell counting using a hemocytometer and a tissue culture microscope. After cell density was determined, 96-well plates and 6-well plates were plated with 2.5×10^4 cells per well and 5×10^5 cells per well for the adenosine 5′-triphosphate (ATP) assay and Western blot analysis, respectively.
# Cell cultures were preincubated with 0.5 μM to 500 μM concentration of carbamathione for one hour. […] For the ATP assay, ATP solution was added to each well, and cells were incubated for 10 min after which time the amount of ATP was quantified through a luciferase reaction. The luminescence intensity was determined using a luminometer with lysates in a standard opaque-walled multi-well plate. […]
# [8] = after 4 days, compared to vehicle treated group, FIG. 23
# [9] = day 4 post BCAO, compared with vehicle treated group, FIG. 24
smiles,measurement,setting,value
"CCN(CC)C(=O)SC[C@H](NC(=O)CC[C@H](N)C(=O)O)C(=O)NCC(=O)O [carbamathione, S—(N,N-diethylcarbamoyl)glutathione]",cell viability (ATP levels),PC-12 cells [1],dramatically increased the cell viability
same,CHOP expression induced by hypoxia-reoxygenation,PC-12 cells [2]; FIG. 13,inhibited
same,GRP 78 expression induced by hypoxia-reoxygenation,PC-12 cells [2]; FIG. 13,inhibited
same,Caspase-12 expression induced by hypoxia-reoxygenation,PC-12 cells [2]; FIG. 14,inhibited
same,cleaved Caspase-12 expression induced by hypoxia-reoxygenation,PC-12 cells [2]; FIG. 14,inhibited
same,ATF4 expression induced by hypoxia-reoxygenation,PC-12 cells [2]; FIG. 15,inhibited
same,ATF6 expression induced by hypoxia-reoxygenation,PC-12 cells [2]; FIG. 16,inhibited
same,XBP1 expression induced by hypoxia-reoxygenation,PC-12 cells [2]; FIG. 17,inhibited
same,Bax expression (upregulation induced by hypoxia/reoxygenation),PC-12 cells [2]; FIG. 18,decreased the upregulation
same,Bcl2 expression (downregulation induced by hypoxia/reoxygenation),PC-12 cells [2]; FIG. 18,increased the downregulation
same,decrease in the Bcl2:Bax ratio induced by hypoxia/reoxygenation,PC-12 cells [2]; FIG. 18,inhibited
same,cleaved Caspase-3 expression (upregulation induced by hypoxia/reoxygenation),PC-12 cells [2]; FIG. 19,decreased the upregulation
same,AKT expression,"PC-12 cells [2]; hypoxia-reoxygenation, FIG. 12",no changes
same,Hsp 27 expression,"PC-12 cells [2]; hypoxia-reoxygenation, compared to hypoxia-reoxygenation alone, FIG. 10",greater over-expression
same,Hsp 70 expression,"PC-12 cells [2]; hypoxia-reoxygenation, compared to hypoxia-reoxygenation alone, FIG. 11",greater over-expression
same,P-AKT expression,"PC-12 cells [2]; hypoxia-reoxygenation, compared to hypoxia-reoxygenation alone, FIG. 12",up-regulated
same,infarct size (TTC staining),"[3]; daily, 4 days after surgery, 2, 4, 6, 8, 10 mm from frontal pole, FIG. 20",noticeably reduced
same,volume of the lesion,"[3]; sections 2, 4, 6, 8 and 10 mm, 30 min transient BCAO, FIG. 20c",markedly reduced
same,asymmetric turning in Corner test,[4],not significant differently from that seen in the sham-operated mice
same,locomotor activity,[5],statistically significantly different than BCAO with vehicle group
same,CHOP expression in the brains,[6]; [8],decreased dramatically
same,GRP 78 expression in the brains,[6]; [8],decreased dramatically
same,Bax expression in the brains,[6]; [9],decreased expression
same,Bcl2 expression in the brains,[6]; [9],significantly increased expression
N[C@@H](CCC(=O)O)C(=O)O [glutamate],survival of PC-12 cells (ATP assay),PC-12 cells [7],about 45%
